# Assay results reported in patent US4707497A, “Phenylethanolaminotetralines, a process for their preparation and pharmaceutical compositions containing them” (Sanofi, priority 1985, dated 1987).
# Where a name gives a salt, the structure may show the parent alone.
# How the values were obtained:
# [1] = test system: adipocytes of the interscapular brown adipose tissue; assay: Lipolytic activity in vitro on brown adipose tissue (BAT) adipocytes, release of free fatty acids; format: cell-based; settings: Rattus norvegicus, Adipocyte; compound 10^-6 M; per cent of noradrenaline effect at 5.10^-6 M (maximal effect); 37° C., 1 hour, pH 7.4
# Source text: (§1) More particularly, the compounds of the present invention show a remarkable lipolytic activity in mammals in the tests predictive of said activity, such as in the test "in vitro" on the brown adipose tissue (BAT) and on the white adipose tissue (WAT) and in the test "in vivo", based upon the thermogenesis in the rat. More particularly, in the test "in vitro" male rats, each weighing 100-125 g, are sacrificed and the adipocytes of the interscapular brown adipose tissue and those of the epididymal white adipose tissue are dissected out, according to the method of M. Rodbell, J. Biol. Chem. 1967, 242, 5744-5750 and separately treated as follows. The adipocytes are incubated with the compound to be tested at a temperature of 37° C. for an hour in Phosphate Krebs-Ringer-(4%) albumine medium at pH 7.4. The long chain fatty acids that are released in the medium are determinated by the method reported by D.I. Trout and al., J. Lip. Res. 1960, 1, 199-202, and compared with the amount of the triglycerides present in the adipocytes, determined by the method of E. Van Handel and al., J. Lab. Clin. Med., 1957, 50, 152-157. The results obtained for representative compounds of the present invention are shown in TABLE I, where the lipolytic activity of the compounds at the dose of 10^-6 M, measured as release of free fatty acids (μEq), is expressed as per cent of the noradrenaline effect at the dose of 5.10^-6 M (maximal effect on both BAT and WAT).
# [2] = test system: epididymal white adipose tissue adipocytes; assay: Lipolytic activity in vitro on white adipose tissue (WAT) adipocytes, release of free fatty acids; format: cell-based; settings: Rattus norvegicus, Adipocyte; compound 10^-6 M; per cent of noradrenaline effect at 5.10^-6 M (maximal effect); 37° C., 1 hour, pH 7.4
# Source text: as §1
# interscapular BAT = assay: Activity on brown adipose tissue thermogenesis in vivo in anaesthetized rats; set-up: species or system rat; settings: 7.5 mg/kg intraperitoneally
# Experimental: In the test "in vivo", the activity on brown adipose tissue thermogenesis is determined by the method reported by P. J. Wellman, Research Communication in Chemical Pathology and Pharmacology 1983, 41, 173-176.
# The anaesthesied rats are treated intraperitoneally with the vehicle and 7.5 mg/kg of the compound to be tested. The interscapular BAT and rectal temperatures are recorded 10, 20 and 30 minutes after the injection.
# mice = assay: Acute toxicity in mice; format: in vivo, mouse; settings: oral dose up to 200 mg/kg
Compound,activation at 1 µM [1],activation at 1 µM [2],"ΔT, average difference between interscapular BAT temperature and rectal temperature (interscapular BAT; 10' after injection, anaesthetized rats (vehicle 0.06 ± 0.04))","ΔT, average difference between interscapular BAT temperature and rectal temperature (interscapular BAT; 20' after injection, anaesthetized rats (vehicle 0.10 ± 0.04))","ΔT, average difference between interscapular BAT temperature and rectal temperature (interscapular BAT; 30' after injection, anaesthetized rats (vehicle 0.14 ± 0.05))",mortality (mice)
"Oc1ccc2c(c1)CC(NC[C@H](O)c1ccccc1)CC2 (single isomer, unassigned; (+)) [SR 58375A, hydrochloride]",100%,97%,,,,
"COc1ccc2c(c1)CC(NCC(O)c1ccccc1)CC2 (stereo not shown) [SR 58279A, 2-[(7-methoxy-1,2,3,4-tetrahydronaphth-2-yl)amino]-1-phenylethanol hydrochloride]",50%,30%,,,,
"Oc1ccc2c(c1)CC(NCC(O)c1ccccc1)CC2 (stereo not shown) [SR 58306, 2-[(7-hydroxy-1,2,3,4-tetrahydronaphth-2-yl)amino]-1-phenylethanol]",,,0.60 ± 0.10 °C,0.90 ± 0.10 °C,0.92 ± 0.08 °C,
"Oc1ccc2c(c1)CC(NCC(O)c1ccccc1)CC2 (stereo not shown) [SR 58306A, 2-[(7-hydroxy-1,2,3,4-tetrahydronaphth-2-yl)amino]-1-phenylethanol hydrochloride]",80%,78%,,,,
"COc1ccc2c(c1)CC(NCC(O)c1cccc(Cl)c1)CC2 (stereo not shown) [SR 58338A, 2-[(7-methoxy-1,2,3,4-tetrahydronaphth-2-yl)amino]-1-(3-chloropheny)ethanol hydrochloride]",77%,89%,,,,
"Cl.Oc1ccc2c(c1)CC(NCC(O)c1cccc(Cl)c1)CC2 (stereo not shown) [SR 58339A, 2-[(7-hydroxy-1,2,3,4-tetrahydronaphth-2-yl)amino]-1-(3-chlorophenyl)-ethanol hydrochloride]",103%,92%,,,,do not cause any mortality
"Oc1ccc2c(c1)CC(NC[C@H](O)c1ccccc1)CC2 (stereo partly drawn) [SR 58365A, (1R,2'RS)-2-[(7-hydroxy-1,2,3,4-tetrahydronaphth-2-yl)amino]-1-phenylethanol hydrochloride]",96%,78%,,,,
"CCOC(=O)COc1ccc2c(c1)CC(NCC(O)c1cccc(Cl)c1)CC2.O=C(O)C(=O)O (stereo not shown) [SR 58380A, 2-[(7-carbethoxymethoxy-1,2,3,4-tetrahydronaphth-2-yl)amino]-1-(3-chlorophenyl)ethanol oxalate]",96%,90%,,,,do not cause any mortality
